Test results reported in patent US20260035370A1, “CRYSTAL FORM OF 8-CHLORO-3-PENTYL-3,7-DIHYDRO-1H-PURIN-2,6-DIONE COMPOUND AND PREPARATION METHOD THEREFOR” (Shanton Pharma Pte. Ltd., priority 2023, published 2026).
Blank lines part the entries; values can stand above or below the molecule they belong to.

Assays:
[1] = Dehydration risk of monohydrate crystal form by VT-XRPD; format: physicochemical
Procedure: (§1) The dehydration risk of the monohydrate crystal form was also evaluated by using VT-XRPD (variable temperature X-ray powder diffraction) in the present invention. […] The stability of crystal forms I and IV in the solid-state was also studied in the present invention.

[2] = Photostability test (influencing factor stability test); format: physicochemical; details: illuminance 5000 Lx ± 500 Lx
Procedure: (§2) Test samples: crystal form I and crystal form II of the compound of formula (1) were prepared according to the above examples.
(§3) Test conditions for investigating the influencing factors:
(§4) Photostablity test: Crystal form I and crystal form II of the compound of formula (1) were laid on a dry and clean watch glass, and kept at an illuminance of 5000 Lx±500 Lx in a light box for 10 days. Samples were taken respectively on Day 5 and Day 10. The purity and the related substance content of the compound of formula (1) were determined and compared with those of the sample taken on Day 0.

[3] = High humidity test (influencing factor stability test); format: physicochemical; details: for Change of purities/related substance contents: under high humidity and light exposure (summary of Table 1)
Procedure: as §2, §3
as §4, with “High humidity” for “Photostablity”, “40° C.±2° C., and 75% RH±5%” for “an illuminance of 5000 Lx±500 Lx in a light box”

[4] = Stability of crystal form I in the formulation; format: physicochemical
Procedure: as §1

[5] = Thermodynamic stability of crystal forms; format: physicochemical
Procedure: as §1

[6] = Kinetic stability in the solid state (long-term storage); format: physicochemical; details: stored at 10° C.-30° C. in double-sealed aluminum packaging and plastic self-sealing bags for more than 6 years
Procedure: as §1

[7] = Hygroscopicity test according to Chinese Pharmacopoeia; format: physicochemical; details: for Weight gain due to hygroscopicity: 25±1° C., 80%+2% relative humidity; for Hygroscopicity, summary in words: summary of hygroscopicity test
Procedure: Test Example 3: Hygroscopicity Test (According to Chinese Pharmacopoeia, Guidelines for Drug
Hygroscopicity Testing, at 25±1° C., and 80%+2% Relative Humidity)
An appropriate amount of the sample from the examples was taken for the hygroscopicity test.

[8] = Solid-state stability under accelerated conditions, open container; format: physicochemical; details: one month
Procedure: as §1

[9] = In vivo PK after oral administration in SD rats; details: for Half-life (t1/2), comparison in words: SD rats, PO, summary of Table 2; for t1/2: male SD rats, PO 2 mg/kg, plasma, mean ± SD, n = 3
Procedure: Test samples: the compound of represented by formula (1), and crystal forms I and II of the compound of formula (1) were prepared according to Examples 1-3;
The tris (i.e. tris(hydroxymethyl)aminomethane) salt crystal form of the compound 8-chloro-3-pentyl-3,7-dihydro-1H-purine-2,6-dione was prepared with reference to WO2010/068581A1.
Oral administration (PO) of four samples:
The concentrations of the test substances were output using Analyst 1.6.2 from AB Sciex. Parameters such as mean, standard deviation, and variation coefficient were calculated using Microsoft Excel (those directly output by Analyst 1.6.2 were not recalculated). PK parameters were calculated using Pharsight Phoenix 6.2 software (NCA model).

[10] = Transformation of crystal form on standing under ambient conditions; format: physicochemical; details: 25-30° C., 70-85% RH, about 10 hours
uric acid = details: cited from earlier work
[11] = compared with the free acid; cited from earlier work
[12] = cited from earlier work
[13] = 40° C. ± 2° C./75% ± 5% RH, Day 5
[14] = 40° C. ± 2° C./75% ± 5% RH, Day 10
[15] = Day 0, sample before exposure (baseline for both tests)

SMILES: CCCCCn1c(=O)[nH]c(=O)c2[nH]c(Cl)nc21 [Crystal form I, 8-chloro-3-pentyl-3,7-dihydro-1H-purine-2,6-dione]
Dehydration risk [1]: very low | Purity ([2]; Day 5): 99.6% | Related substance ([2]; Day 5): 0.44% | Purity ([2]; Day 10): 99.5% | Related substance ([2]; Day 10): 0.46% | Purity [3, 13]: 99.5% | Related substance [3, 13]: 0.46% | Purity [3, 14]: 99.6% | Related substance [3, 14]: 0.42% | Purity [3, 15]: 99.6% | Related substance [3, 15]: 0.45% | Change of purities/related substance contents [3]: changed very little | Content of crystal form III in the formulation ([4]; formulation stored at 25° C./60% RH for 9 months): below LOD | Content of crystal form III in the formulation ([4]; formulation stored at 40° C./75% RH for 6 months): below LOD | Thermodynamic stability for pharmaceutical applications [5]: advantageous | Crystal form after long-term storage [6]: remained unchanged | Weight gain due to hygroscopicity [7]: <0.2% | Hygroscopicity, summary in words [7]: extremely low hygroscopicity | Crystal form transformation after storage ([8]; 25° C./92.5% RH): did not transform | Crystal form transformation after storage ([8]; 40° C./75% RH): did not transform | Half-life (t1/2), comparison in words [9]: longer half-lifes | t1/2 ([9]; 2 mg/kg): 5.28 ± 1.10 h

SMILES: CCCCCn1c(=O)[nH]c(=O)c2[nH]c(Cl)nc21 [Crystal form II, 8-chloro-3-pentyl-3,7-dihydro-1H-purine-2,6-dione]
Purity ([2]; Day 5): 99.7% | Related substance ([2]; Day 5): 0.31% | Purity ([2]; Day 10): 99.7% | Related substance ([2]; Day 10): 0.32% | Purity [3, 13]: 99.7% | Related substance [3, 13]: 0.31% | Purity [3, 14]: 99.7% | Related substance [3, 14]: 0.32% | Purity [3, 15]: 99.7% | Related substance [3, 15]: 0.32% | Change of purities/related substance contents [3]: changed very little | Thermodynamic stability for pharmaceutical applications [5]: advantageous | Weight gain due to hygroscopicity [7]: <0.2% | Hygroscopicity, summary in words [7]: extremely low hygroscopicity | Half-life (t1/2), comparison in words [9]: longer half-lifes | t1/2 ([9]; 2 mg/kg): 4.26 ± 0.61 h

SMILES: CCCCCn1c(=O)[nH]c(=O)c2[nH]c(Cl)nc21 [Crystal form III, 8-chloro-3-pentyl-3,7-dihydro-1H-purine-2,6-dione]
Thermodynamic stability for pharmaceutical applications [5]: suboptimal

SMILES: CCCCCn1c(=O)[nH]c(=O)c2[nH]c(Cl)nc21 [Formula (1), 8-chloro-3-pentyl-3,7-dihydro-1H-purine-2,6-dione]
Uric acid-lowering effect (uric acid): good uric acid-lowering effect

The next lines start with results.

Crystal form transformation after storage ([8]; 25° C./92.5% RH): transformed into crystal form I | Crystal form transformation after storage ([8]; 40° C./75% RH): transformed into crystal form I
SMILES: CCCCCn1c(=O)[nH]c(=O)c2[nH]c(Cl)nc21 [Crystal form IV, 8-chloro-3-pentyl-3,7-dihydro-1H-purine-2,6-dione]

Crystal form transformation under ambient conditions [10]: transform into crystal form IV
SMILES: CCCCCn1c(=O)[nH]c(=O)c2[nH]c(Cl)nc21 [Crystal form V, 8-chloro-3-pentyl-3,7-dihydro-1H-purine-2,6-dione]

t1/2 ([9]; monohydrate, 2 mg/kg): 2.32 ± 0.09 h
SMILES: CCCCCn1c(=O)[nH]c(=O)c2[nH]c(Cl)nc21 [Solid product of Example 1, 8-chloro-3-pentyl-3,7-dihydro-1H-purine-2,6-dione monohydrate, reference compound]

t1/2 [9]: 2.38 ± 0.17 h
SMILES: CCCCCn1c(=O)[nH]c(=O)c2[nH]c(Cl)nc21.NC(CO)(CO)CO [tris salt crystal form, 8-chloro-3-pentyl-3,7-dihydro-1H-purine-2,6-dione tris(hydroxymethyl)aminomethane salt]
Cmax [11]: increased Cmax | Tmax [11]: decreased Tmax | Solubility compared with the free acid [12]: higher solubility
